Here are results for one molecule from patent US5873359A, “Methods and devices for treating pulmonary vasoconstriction and asthma” (The General Hospital Corporation, priority 1994, dated 1999).

In this test the test system is methacholine bronchoconstriction. Briefly: Dose-response of intermittent NO inhalation during methacholine infusion. Type of test: in vivo, Hartley strain guinea pigs. As to the method:
Male Hartley strain guinea pigs (300-440g body wt) were anesthetized with α-chloralose (50 mg/kg) and urethane (500 mg/kg) (Drazen et al., J. Appl. Physiol. 48:613-618, 1980). A tracheostomy was performed, and the animals were intubated with a tubing adaptor (ID 1.65 mm) and ventilated with a small animal ventilator (Harvard Apparatus, a division of Ealing Scientific, Natick, Mass.) at 8 ml/kg and 60 breaths/min. A jugular vein was cannulated for intravenous administration of drugs. The chest was opened by bilateral excision of a portion of the ribs anteriorly so that the lungs were exposed to atmospheric pressure (Shore and Drazen, J. Appl. Physiol. 67:2504-2511, 1989). A positive end expiratory pressure of 3-4 cmH2 O was provided.
Guinea pigs were then placed inside a plethysmograph (Amdur and Mead, Am. J. Physiol. 192:363-368, 1958), that was connected to a large reservoir containing copper mesh to maintain the plethysmograph isothermal. Plethysmograph pressure was measured with a differential pressure transducer (Celesco, Canoga Park, Calif.); the opposite side of this transducer was connected to a similar reservoir. Pressure at the airway opening was measured from a side tap in the tracheal canula. Transpulmonary pressure was measured with a differential pressure transducer (Celesco) as the difference between airway opening pressure and the pressure inside the plethysmograph. Flow was obtained by electrical differentiation of the volume (plethysmograph pressure) signal. Tidal volume was measured by recording the pressure changes in the body plethysmograph. Volume, flow, and transpulmonary pressure signals were recorded on a strip chart (General Scanning, Watertown, Mass.). Pulmonary resistance and dynamic compliance were calculated by a computer program according to the method of von Neergard and Wirz (Z. Klin. Med. 105:35-50, 1927; Z. Klin. Med. 105:52-82, 1927).
The apparatus and conditions used are diagrammed in FIG. 7. The inspired gas was a precise mixture of nitrogen and oxygen blended via a Y piece tube and immediately diluted with nitric oxide (NO) to produce the correct inspired concentration in a 5 liter gas mixture bag. With volumetrically calibrated flowmeters, varying quantities of NO mixed with N2 were substituted for pure N2 to obtain the desired No concentration at an inspired oxygen concentration (FIO2) of 0.30-0.32. The total inflow gas rate was maintained at 2.5 l/min. The gas mixture was then sent via a 3 cm ID tube filled with 90 ml of soda lime to scavenge nitrogen dioxide (Stavert and Lehnert, Inhal. Toxicol. 2:53-67, 1990), then through a filter before the ventilator. Just after the ventilator inflow tube, a vacuum was adjusted to maintain the gas mixture bag nearly empty and continuously drive fresh gas into the ventilator circuit. The expiratory gas from the ventilator was scavenged with a vacuum and set up to maintain a positive end expiratory pressure of 3-4 cm H2 O. NO was obtained from Air Products and Chemicals, Inc. (Allentown, Pa.) as a mixture of 1,034 ppm NO in pure nitrogen. A chemiluminescence NO/NOx analysis (Fontijin et al., Anal. Chem. 42:575-579, 1970) was performed before and after the soda lime filled tube, and just before the inspiratory valve of the ventilator (see FIG. 7) to assess the nitrogen dioxide concentration and adjust the flowmeters to provide the different levels of NO concentration.
ii. Dose-response study of intermittent NO inhalation during methacholine infusion. After baseline measurements, the same guinea pigs were given an intravenous infusion of a potent bronchoconstrictor, methacholine, at a rate of 2.5-7.5 μg/kg/min in order to reach a medium level of bronchoconstriction (3 to 4 fold the baseline lung resistance). After a stable period, each animal was ventilated with a series of gas mixtures of 5, 10, 25, 50, 100 and 300 ppm NO for 10 minutes at constant FIO2 (0.30-0.32). […]

Setting [1] is: NO-containing gas mixtures (FIGS. 9-12).

Regarding `[N]=O` [NO, nitric oxide], the bronchodilation result (5 ppm NO) is “produced bronchodilation”. Further, the airway resistance result (100 or 300 ppm NO) was “greater and more rapid reduction of airway resistance”. Further, the “reversal of methacholine bronchoconstriction” value (300 ppm NO) is “Complete reversal of methacholine bronchoconstriction”. Further, under setting [1], the lung compliance result is on record as “increase of lung compliance”; the lung resistance entry was “consistent, rapid and profound reduction of lung resistance”. Also, the onset of dilation result (after inhalation) was “within a few seconds”. Also, the “reversal of methacholine bronchoconstriction” value (nitric oxide inhalation) is given as “reversed the profound bronchoconstriction”.
